SMILES strings stand for the structures.

Sequence of Growth hormone secretagogue receptor type 1 (Q92847 whole entry): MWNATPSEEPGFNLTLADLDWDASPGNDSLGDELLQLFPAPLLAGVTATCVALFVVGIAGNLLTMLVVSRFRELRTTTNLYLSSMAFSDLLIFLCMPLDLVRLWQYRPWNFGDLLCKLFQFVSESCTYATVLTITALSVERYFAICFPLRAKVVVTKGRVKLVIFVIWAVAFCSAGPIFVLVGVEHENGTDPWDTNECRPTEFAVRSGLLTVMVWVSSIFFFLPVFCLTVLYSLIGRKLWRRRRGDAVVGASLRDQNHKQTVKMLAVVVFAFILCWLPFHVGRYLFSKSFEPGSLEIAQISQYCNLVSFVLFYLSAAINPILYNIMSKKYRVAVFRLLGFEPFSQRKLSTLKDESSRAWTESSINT

One assay has as its target Growth hormone secretagogue receptor type 1 (Homo sapiens, UniProt Q92847). Briefly: Binding affinity for human growth hormone GH secretagogue (hGHsr) receptor.
Conditions: not given
Usually IC50 stands for the concentration needed to halve the response being measured. Higher therefore signals weaker potency in that assay. As for `NCCCCCCNC(=O)Cn1c(-c2ccc3ccccc3c2)nc2ccc(-c3ccccc3)cc2c1=O`, the IC50 was 0.2 µM.

Consider `NCCCCCNC(=O)Cn1c(CCc2ccccc2)nc2ccc(-c3ccccc3)cc2c1=O`, for which the IC50 worked out at 0.048 µM.

`NCCCCCCNC(=O)Cn1c(CCc2ccccc2)nc2ccc(Br)cc2c1=O` registered an IC50 of 0.067 µM.

Compound `CN1N=C2CCN(C(=O)[C@@H](COCc3ccccc3)NC(=O)C(C)(C)N)C[C@@]2(Cc2ccccc2)C1=O` [CAPROMORELIN] showed a 50% inhibitory concentration (IC50) of 3 µM. This IC50 lies about 45-fold higher than the previous one.

`NCCCCCCNC(=O)Cn1c(CCc2ccccc2)nc2ccc(-c3ccccc3)cc2c1=O` had an IC50 of 0.016 µM.

`NCCCCCNC(=O)Cn1c(CCc2ccccc2)nc2ccc(Br)cc2c1=O` came in with an IC50 of 0.34 µM.

Turning to `NCCCCCCNC(=O)Cn1c(-c2ccc3ccccc3c2)nc2ccc(Br)cc2c1=O`, the half-maximal inhibitory concentration (IC50) was 0.96 µM.

Compound `NCCCCCNC(=O)Cn1c(-c2ccc3ccccc3c2)nc2ccc(Br)cc2c1=O` registered an IC50 of 1.4 µM.

`NCCCCCNC(=O)Cn1c(-c2ccc3ccccc3c2)nc2ccc(-c3ccccc3)cc2c1=O` gave an IC50 of 0.34 µM.

The compound `COC(=O)C(CCCCN)NC(=O)Cn1c(-c2ccc3ccccc3c2)nc2ccc(Cl)cc2c1=O` (stereo unspecified) yielded an IC50 of 3.5 µM.

A further assay is filed under the species Rattus norvegicus. Put plainly: The effective concentration against rat pituitary cell GH release assay. The assay is classed as functional. The conditions noted are these: Pituitary gland cell.
In turn, `NCCCCCCNC(=O)Cn1c(CCc2ccccc2)nc2ccc(-c3ccccc3)cc2c1=O` showed an IC50 of 0.63 µM.

The values above are taken from ChEMBL document CHEMBL1132855, “Modeling directed design and biological evaluation of quinazolinones as non-peptidic growth hormone secretagogues” (Bioorg Med Chem Lett, 2000).
